Patent publication US20230158025A1 (UNIVERSITY OF UTAH RESEARCH FOUNDATION, priority 2020, published 2023)
pIC50: −log10 of the molar value. Where two headings read alike, the source gives them in different places.

What was measured:
[1] = rat microsomal stability (RLM)
recombinant human GALK1 = recombinant human GALK1 (Homo sapiens, UniProt P51570); assay: hGALK1 biochemical activity assay (Kinase-Glo Plus, ATP depletion)
Method in brief: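 Turnover is measured as ATP depletion by Kinase-Glo Plus luminescence after a 1 h room-temperature reaction. Compounds span 11 concentrations, 57.4 μM–0.97 nM, in final 20 mM HEPES pH 8.0 with 5 mM MgCl2. The substrate solution held 35 μM ATP; the added solution held 5 nM human or mouse GALK1 and 100 μM galactose.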

recombinant mouse GALK1 = recombinant mouse GALK1 (Mus musculus, UniProt Q9R0N0); assay: mGALK1 biochemical activity assay (Kinase-Glo Plus, ATP depletion)
Method in brief: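 Recombinant GALK1 (5 nM) with 100 μM galactose; GALK1 turnover read as ATP depletion by Kinase-Glo Plus luminescence. Reaction ran 1 h at room temperature before detection reagent was added.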

[2] = aqueous kinetic solubility
[3] = recombinant human GALK1, Kinase-Glo Plus ATP depletion, read-out: hGALK
[4] = recombinant mouse GALK1, Kinase-Glo Plus ATP depletion, read-out: mGALK
[5] = Tables 2-15, 35 μM ATP, 100 μM galactose, 1 h, bracketed figure after some values is undefined and not reported, read-out: mGALK IC50
[6] = Tables 2-15, 35 μM ATP, 100 μM galactose, 1 h, bracketed figure after some values (e.g. −1.2) is undefined and not reported, read-out: hGALK IC50
[7] = microsomal stability half-life, minutes
[8] = recombinant human GALK1, Kinase-Glo Plus ATP depletion, bracketed figure in the cell, e.g. (−1.2), is not defined in the text shown, read-out: hGALK

Chain of recombinant human GALK1 (P51570 whole entry): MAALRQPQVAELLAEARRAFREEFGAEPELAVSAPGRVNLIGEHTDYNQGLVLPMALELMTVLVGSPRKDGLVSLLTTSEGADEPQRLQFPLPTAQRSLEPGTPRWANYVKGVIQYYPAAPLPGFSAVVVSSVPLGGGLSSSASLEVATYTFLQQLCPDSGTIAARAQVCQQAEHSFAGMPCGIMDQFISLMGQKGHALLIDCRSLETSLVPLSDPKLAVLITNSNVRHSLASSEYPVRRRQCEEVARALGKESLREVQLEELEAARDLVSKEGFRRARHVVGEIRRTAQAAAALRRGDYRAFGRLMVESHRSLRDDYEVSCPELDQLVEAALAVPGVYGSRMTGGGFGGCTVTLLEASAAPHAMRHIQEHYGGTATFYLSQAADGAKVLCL
Chain of recombinant mouse GALK1 (Q9R0N0 whole entry): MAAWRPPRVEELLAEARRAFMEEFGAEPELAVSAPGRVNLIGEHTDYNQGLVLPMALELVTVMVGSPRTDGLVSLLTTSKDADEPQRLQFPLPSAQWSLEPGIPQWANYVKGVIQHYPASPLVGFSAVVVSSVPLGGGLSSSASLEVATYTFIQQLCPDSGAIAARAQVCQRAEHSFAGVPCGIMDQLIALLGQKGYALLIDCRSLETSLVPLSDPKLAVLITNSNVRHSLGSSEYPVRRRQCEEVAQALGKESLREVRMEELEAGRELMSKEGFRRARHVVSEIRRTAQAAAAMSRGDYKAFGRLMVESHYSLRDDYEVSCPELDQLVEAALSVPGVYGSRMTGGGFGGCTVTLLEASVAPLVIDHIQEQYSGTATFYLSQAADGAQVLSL

## CC1=C(C(=O)Nc2cc(C(=O)O)ccc2F)C(c2ccccc2Cl)N=C(Nc2nc3ccccc3o2)N1 (centres unmarked) [Compound 210, 3-(2-(benzo[d]oxazol-2-ylamino)-4-(2-chlorophenyl)-6-methyl-1,4-dihydropyrimidine-5-carboxamido)-4-fluorobenzoic acid]
[1]; microsomal stability half-life
  Metab. Stabil. (m): >30 m
Recombinant human GALK1; [3]
  pIC50: 5.51
PAMPA permeability; PAMPA
  Perm. (1 × 10^−6 cm/sec): 3.3 1 × 10^−6 cm/sec
Recombinant mouse GALK1; [4]
  pIC50: 4.96
[2]; aqueous kinetic solubility
  Sol.: 25.4 µg/mL

## CC1=C(C(=O)Nc2ccnc(C(=O)O)c2)C(c2ccccc2Cl)N=C(Nc2nc3ccccc3o2)N1 (centres unmarked) [Compound 203, 4-(2-(benzo[d]oxazol-2-ylamino)-4-(2-chlorophenyl)-6-methyl-1,4-dihydropyrimidine-5-carboxamido)picolinic acid]
[1]; microsomal stability half-life
  Metab. Stabil. (m): >30 m
Recombinant human GALK1; [3]
  pIC50: 5.46
PAMPA permeability; PAMPA
  Perm. (1 × 10^−6 cm/sec): <1 1 × 10^−6 cm/sec
Recombinant mouse GALK1; [5]
  pIC50: 5.51
Recombinant mouse GALK1; [4]
  pIC50: 5.51
[2]; aqueous kinetic solubility
  Sol.: >74 µg/mL

## CC1=C(C(=O)Nc2ccc(C#N)cc2)C(c2ccccc2Cl)N=C(Nc2nc3ccccc3o2)N1 (centres unmarked) [Compound 189, 2-(benzo[d]oxazol-2-ylamino)-4-(2-chlorophenyl)-N-(4-cyanophenyl)-6-methyl-1,4-dihydropyrimidine-5-carboxamide]
[1]; microsomal stability half-life
  Metab. Stabil. (m): 25.33 m
Recombinant human GALK1; [6]
  pIC50: 4.96
Recombinant human GALK1; [3]
  pIC50: 4.96
PAMPA permeability; PAMPA
  Perm. (1 × 10^−6 cm/sec): <18.7 1 × 10^−6 cm/sec
Recombinant mouse GALK1; [5]
  pIC50: 4.86
Recombinant mouse GALK1; [4]
  pIC50: 4.86
[2]; aqueous kinetic solubility
  Sol.: <1 µg/mL

## CC1=C(C(=O)Nc2nncs2)C(c2c(Br)cnn2C)N=C(Nc2nc3ccccc3o2)N1 (centres unmarked) [Compound 258, 2-(benzo[d]oxazol-2-ylamino)-4-(4-bromo-1-methyl-1H-pyrazol-5-yl)-6-methyl-N-(1,3,4-thiadiazol-2-yl)-1,4-dihydropyrimidine-5-carboxamide]
[1]; [7]
  Metab. Stabil. (m): >30 m
Recombinant human GALK1; [8]
  pIC50: 4.66
PAMPA permeability; PAMPA
  Perm. (1 × 10^−6 cm/sec): 198.3 1 × 10^−6 cm/sec
Recombinant mouse GALK1; recombinant mouse GALK1, Kinase-Glo Plus ATP depletion, bracketed figure in the cell, e.g. (−1.2), is not defined in the text shown
  mGALK (μM): in- active
[2]; aqueous kinetic solubility
  Sol.: 38.7 µg/mL

## CC1=C(C(=O)Nc2nncs2)C(c2ccc(Cl)cc2Cl)N=C(Nc2nc3ccccc3o2)N1 (centres unmarked) [Compound 261, 2-(benzo[d]oxazol-2-ylamino)-4-(2,4-dichlorophenyl)-6-methyl-N-(1,3,4-thiadiazol-2-yl)-1,4-dihydropyrimidine-5-carboxamide]
[1]; [7]
  Metab. Stabil. (m): >30 m
Recombinant human GALK1; [8]
  pIC50: 5.31
PAMPA permeability; PAMPA
  Perm. (1 × 10^−6 cm/sec): <4.9 1 × 10^−6 cm/sec
Recombinant mouse GALK1; recombinant mouse GALK1, Kinase-Glo Plus ATP depletion, bracketed figure in the cell, e.g. (−1.2), is not defined in the text shown, read-out: mGALK
  pIC50: 5.21
[2]; aqueous kinetic solubility
  Sol.: <1 µg/mL

## COC(=O)Cc1ccc(NC(=O)C2=C(C)NC(Nc3nc4ccccc4o3)=NC2c2ccccc2Cl)cc1 (centres unmarked) [Compound 170, methyl 2-(4-(2-(benzo[d]oxazol-2-ylamino)-4-(2-chlorophenyl)-6-methyl-1,4-dihydropyrimidine-5-carboxamido)phenyl)acetate]
[1]; microsomal stability half-life
  Metab. Stabil. (m): 7.464 m
Recombinant human GALK1; [6]
  pIC50: 5.26
Recombinant human GALK1; [3]
  pIC50: 5.26
PAMPA permeability; PAMPA
  Perm. (1 × 10^−6 cm/sec): 195.0 1 × 10^−6 cm/sec
Recombinant mouse GALK1; [5]
  pIC50: 4.91
Recombinant mouse GALK1; [4]
  pIC50: 4.91
[2]; aqueous kinetic solubility
  Sol.: <1 µg/mL

## CC1=C(C(=O)Nc2ccccc2CO)C(c2ccccc2Cl)N=C(Nc2nc3ccccc3o2)N1 (centres unmarked) [Compound 156, 2-(benzo[d]oxazol-2-ylamino)-4-(2-chlorophenyl)-N-(2-(hydroxymethyl)phenyl)-6-methyl-1,4-dihydropyrimidine-5-carboxamide]
[1]; microsomal stability half-life
  Metab. Stabil. (m): 7.708 m
Recombinant human GALK1; [3]
  pIC50: 5.41
PAMPA permeability; PAMPA
  Perm. (1 × 10^−6 cm/sec): 1038.5 1 × 10^−6 cm/sec
Recombinant mouse GALK1; [5]
  pIC50: 4.76
Recombinant mouse GALK1; [4]
  pIC50: 4.76
[2]; aqueous kinetic solubility
  Sol.: <1 µg/mL

## CC1=C(C(=O)Nc2cc(C(=O)O)ccn2)C(c2ccc(N3CCOCC3)cc2Cl)N=C(Nc2nc3ccc(F)cc3o2)N1 (centres unmarked) [Compound 59, 2-(4-(2-chloro-4-morpholinphenyl)-2-((6-fluorobenzo[d]oxazol-2-yl)amino)-6-methyl-1,4-dihydropyrimidine-5-carboxamido)isonicotinic acid]
[1]; microsomal half-life
  Metab. Stabil. (m): >30 m
Recombinant human GALK1; [3]
  pIC50: 6.37
PAMPA permeability
  Perm. (1 × 10^−6 cm/sec): 26.5 1 × 10^−6 cm/sec
Recombinant mouse GALK1; [5]
  pIC50: 5.41
Recombinant mouse GALK1; [4]
  pIC50: 5.41
[2]
  Sol.: >89 µg/mL
